We go through 28 compounds from patent US10988477B2 (Merck Patent GmbH, priority 2018, dated 2021).

In assay [1] the target is intracellular GCN2 (phosphorylation of the GCN2 substrate eIF2α) (Homo sapiens, UniProt Q9P2K8). Nature of the assay: GCN2 cellular inhibition assay (AlphaScreen SureFire P-eIF2α Ser51, borrelidin-treated U2OS cells). The note with it: biomarker assay, phosphorylated eIF2α Ser51 in borrelidin-treated U2OS cells. It is filed as cell-based. In a few lines: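 Read-out: AlphaScreen SureFire phospho-eIF2α (Ser51) signal in U2OS lysates. Cells get 4-fold compound dilutions (top 40 μM final) plus 10 μM borrelidin, 1 h, 37 °C. Percent inhibition is relative to borrelidin-alone controls.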

A further assay has as its target GCN2 kinase (Homo sapiens, UniProt Q9P2K8). The assay can be described thus: GCN2 enzyme inhibition assay (Transcreener ADP2 fluorescence polarization). It is filed as biochemical. The note with it: 280 μM ATP. In outline:
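4 nM GCN2 + 200 μM (RS)7 + compound (0–8 μM), 10 min preinc.; start with ATP (280 μM final); 1 h, 25 °C; pH 7.5 Tris/NaCl/MgCl2/DTT; ADP FP readout; IC50, Ki(app) via tight-binding fit.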
(In general: Fluorescence polarisation rises when a labelled molecule tumbles more slowly, as on binding a larger partner.)

Where [2] appears, read: compounds of Formula II, 4 nM GCN2 kinase.
The mark [3] stands for this setting: Enzyme activity for compounds of Formula IV, Ki(app), 25° C.

Sequence of intracellular GCN2 (phosphorylation of the GCN2 substrate eIF2α) (Q9P2K8 whole entry): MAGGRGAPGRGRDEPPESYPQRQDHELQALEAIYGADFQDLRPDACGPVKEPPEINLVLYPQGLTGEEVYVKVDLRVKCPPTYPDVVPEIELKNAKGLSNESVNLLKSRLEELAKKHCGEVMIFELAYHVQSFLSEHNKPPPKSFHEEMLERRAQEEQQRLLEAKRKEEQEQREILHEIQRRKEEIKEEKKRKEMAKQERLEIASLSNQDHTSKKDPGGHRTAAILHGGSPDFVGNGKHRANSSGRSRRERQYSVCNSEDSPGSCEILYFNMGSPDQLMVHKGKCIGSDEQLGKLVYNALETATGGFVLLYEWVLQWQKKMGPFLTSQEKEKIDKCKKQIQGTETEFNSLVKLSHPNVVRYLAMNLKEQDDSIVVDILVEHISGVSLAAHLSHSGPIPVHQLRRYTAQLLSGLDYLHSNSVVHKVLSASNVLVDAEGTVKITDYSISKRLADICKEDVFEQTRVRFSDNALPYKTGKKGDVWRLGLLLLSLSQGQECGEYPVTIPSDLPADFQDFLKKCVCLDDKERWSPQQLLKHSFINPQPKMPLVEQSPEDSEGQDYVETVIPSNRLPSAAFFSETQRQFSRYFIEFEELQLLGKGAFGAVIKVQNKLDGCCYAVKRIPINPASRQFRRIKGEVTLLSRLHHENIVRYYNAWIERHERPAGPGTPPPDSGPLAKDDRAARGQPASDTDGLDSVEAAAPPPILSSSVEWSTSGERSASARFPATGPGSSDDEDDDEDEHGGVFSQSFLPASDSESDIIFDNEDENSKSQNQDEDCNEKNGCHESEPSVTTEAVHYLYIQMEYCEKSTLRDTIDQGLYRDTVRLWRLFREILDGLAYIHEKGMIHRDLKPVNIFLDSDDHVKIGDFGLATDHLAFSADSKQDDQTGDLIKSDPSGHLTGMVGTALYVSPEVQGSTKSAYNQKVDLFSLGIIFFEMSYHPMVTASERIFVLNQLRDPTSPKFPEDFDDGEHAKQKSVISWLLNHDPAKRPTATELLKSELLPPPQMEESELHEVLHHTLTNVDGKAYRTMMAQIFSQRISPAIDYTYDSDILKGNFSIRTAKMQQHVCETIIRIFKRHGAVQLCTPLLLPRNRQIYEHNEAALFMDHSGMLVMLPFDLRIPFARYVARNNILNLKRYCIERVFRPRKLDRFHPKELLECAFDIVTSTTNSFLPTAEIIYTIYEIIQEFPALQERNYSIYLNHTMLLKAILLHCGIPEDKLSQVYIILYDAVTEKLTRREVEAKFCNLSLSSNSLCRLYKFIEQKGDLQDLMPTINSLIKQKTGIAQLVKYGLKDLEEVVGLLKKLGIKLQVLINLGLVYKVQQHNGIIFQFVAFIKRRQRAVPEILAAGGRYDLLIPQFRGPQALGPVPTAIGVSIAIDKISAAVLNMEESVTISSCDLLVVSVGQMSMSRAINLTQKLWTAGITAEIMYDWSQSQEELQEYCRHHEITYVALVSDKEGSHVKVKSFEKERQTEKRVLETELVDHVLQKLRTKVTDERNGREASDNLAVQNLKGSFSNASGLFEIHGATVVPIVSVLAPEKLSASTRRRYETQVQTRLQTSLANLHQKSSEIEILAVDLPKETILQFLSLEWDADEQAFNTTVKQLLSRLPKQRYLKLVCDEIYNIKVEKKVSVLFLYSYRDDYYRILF
Sequence of GCN2 kinase (Q9P2K8 whole entry): as above

The IC50 is the point on the concentration scale where inhibition reaches its midpoint. Low values mean greater potency, high ones weaker potency. In the case of `CC1(CNS(C)(=O)=O)CCCN(c2cc(-c3cnc4ccc(C(F)F)nn34)ccn2)C1` (centres unmarked) [II-115, N-((1-(4-(6-(Difluoromethyl)imidazo[1,2-b]pyridazin-3-yl)pyridin-2-yl)-3-methylpiperidin-3-yl)methyl)methanesulfonamide], in assay [1] (compounds of Formula II), the 50% inhibitory concentration (IC50) fell in the range of 0.5 to 5 µM. Also, the Ki at GCN2 kinase (setting [2]) lay within 0.01 to 1 µM.

In assay [1] (compounds of Formula IV), `O=S(=O)(NC1CCCC1)C1CCCN(c2ccnc(-c3cnc4cnc(C(F)F)cn34)n2)C1` (centres unmarked) [IV-171, N-Cyclopentyl-1-(2-(6-(difluoromethyl)imidazo[1,2-a]pyrazin-3-yl)pyrimidin-4-yl)piperidine-3-sulfonamide] returned an IC50 of over 5 µM. For the same compound, the Ki on GCN2 kinase (setting [3]) lay in the range of 0.1 to 1 µM.

In assay [1] (compounds of Formula II), `NS(=O)(=O)N1CC2(CN(c3cc(-c4cnc5ccc(C(F)F)nn45)ncn3)CCO2)C1` [II-334, 8-(6-(6-(Difluoromethyl)imidazo[1,2-b]pyridazin-3-yl)pyrimidin-4-yl)-5-oxa-2,8-diazaspiro[3.5]nonane-2-sulfonamide] registered a concentration for half-maximal inhibition (IC50) of 0.5 to 5 µM. The same compound displayed a Ki at GCN2 kinase (setting [2]) of 0.01 to 1 µM.

`C[C@@H]1[C@H](CNS(C)(=O)=O)N(C2CC2)CCN1c1cc(-c2cnc3ccc(C(F)F)nn23)ncn1` [II-753, N-(((2S,3R)-1-cyclopropyl-4-(6-(6-(difluoromethyl)imidazo[1,2-b]pyridazin-3-yl)pyrimidin-4-yl)-3-methylpiperazin-2-yl)methyl)methanesulfonamide]: the results for the IC50 (in assay [1] (compounds of Formula II); against GCN2 kinase (setting [2])) were 0.5 to 5 µM and 0.01 to 1 µM, respectively.

Regarding `CS(=O)(=O)NCC1CN(c2cc(-c3cnc4ccc(C(F)F)nn34)ncn2)CC2(CC2)C1(F)F` (centres unmarked) [II-528, N-((5-(6-(6-(Difluoromethyl)imidazo[1,2-b]pyridazin-3-yl)pyrimidin-4-yl)-8,8-difluoro-5-azaspiro[2.5]octan-7-yl)methyl)methanesulfonamide], in assay [1] (compounds of Formula II), the half-inhibitory concentration (IC50) was under 0.5 µM. This compound also came in with a Ki on GCN2 kinase (setting [2]) of under 0.01 µM.

For the compound `CS(=O)(=O)NCC1CCCN(c2cc(-c3cnc4ccc(C(F)F)nn34)cc(CN)n2)C1` (centres unmarked) [II-80, N-((1-(6-(Aminomethyl)-4-(6-(difluoromethyl)imidazo[1,2-b]pyridazin-3-yl)pyridin-2-yl)piperidin-3-yl)methyl)methanesulfonamide], in assay [1] (compounds of Formula II), the IC50 fell in the range of 0.5 to 5 µM. On GCN2 kinase (setting [2]), this compound had a Ki of under 0.01 µM.

For `CC(=O)N1CCCN(c2cc(-c3cnc4ccc(C(F)F)nn34)ccn2)CC1` [II-163, 1-(4-(4-(6-(Difluoromethyl)imidazo[1,2-b]pyridazin-3-yl)pyridin-2-yl)-1,4-diazepan-1-yl)ethanone], the IC50 in assay [1] (compounds of Formula II) was in the range of 0.5 to 5 µM. The compound further came in with a Ki on GCN2 kinase (setting [2]) of 0.01 to 1 µM.

Compound `O=c1[nH]nc2n1CCN(c1ccnc(-c3cnc4cnc(C(F)F)cn34)n1)C2` [IV-83, 7-(2-(6-(Difluoromethyl)imidazo[1,2-a]pyrazin-3-yl)pyrimidin-4-yl)-5,6,7,8-tetrahydro-[1,2,4]triazolo[4,3-a]pyrazin-3 (2H)-one] showed an IC50 in assay [1] (compounds of Formula IV) of over 5 µM. Moreover, the Ki on GCN2 kinase (setting [3]) lay in the range of 0.1 to 1 µM.

As to `C[C@H]1[C@@H](CO)CCCN1c1cc(-c2cnc3ccc(C(F)F)nn23)ncn1` (single isomer, unassigned) [II-392], the IC50 in assay [1] (compounds of Formula II) was 0.5 to 5 µM. The same compound had a Ki on GCN2 kinase (setting [2]) of 0.01 to 1 µM.

Consider `CC(NS(C)(=O)=O)C1CN(c2ccnc(-c3cnc4cnc(C(F)F)cn34)n2)CCO1` (centres unmarked) [IV-61, N-(1-(4-(2-(6-(Difluoromethyl)imidazo[1,2-a]pyrazin-3-yl)pyrimidin-4-yl)morpholin-2-yl)ethyl)methanesulfonamide], for which, in assay [1] (compounds of Formula IV), the half-inhibitory concentration (IC50) is over 5 µM. Moreover, the Ki at GCN2 kinase (setting [3]) lay in the range of 0.1 to 1 µM.

In assay [1] (compounds of Formula II), `CC1(C)COC(CNS(C)(=O)=O)CN1c1cc(-c2cnc3ccc(C(F)F)nn23)ncn1` (centres unmarked) [II-457, N-((4-(6-(6-(Difluoromethyl)imidazo[1,2-b]pyridazin-3-yl)pyrimidin-4-yl)-5,5-dimethylmorpholin-2-yl)methyl)methanesulfonamide] registered an IC50 of 0.5 to 5 µM. For the same compound, the Ki at GCN2 kinase (setting [2]) fell in the range of 0.01 to 1 µM.

For `CS(=N)(=O)CCC1CCCN(c2cc(-c3cnc4ccc(C(F)F)nn34)ccn2)C1` (centres unmarked) [II-104, (2-(1-(4-(6-(Difluoromethyl)imidazo[1,2-b]pyridazin-3-yl)pyridin-2-yl)piperidin-3-yl)ethyl)(imino)(methyl)-λ^6-sulfanone], the half-maximal inhibitory concentration (IC50) in assay [1] (compounds of Formula II) was over 5 µM. The compound further registered a Ki at GCN2 kinase (setting [2]) of 0.01 to 1 µM.

In turn, `OCC1CCCN(c2ccnc(-c3cnc4cnc(C(F)(F)F)cn34)n2)C1` (centres unmarked) [IV-439, (1-(2-(6-(Trifluoromethyl)imidazo[1,2-a]pyrazin-3-yl)pyrimidin-4-yl)piperidin-3-yl)methanol] had an IC50 in assay [1] (compounds of Formula IV) of over 5 µM. Further, the Ki at GCN2 kinase (setting [3]) lay in the range of 0.1 to 1 µM.

On to `CC1CN(c2cc(-c3cnc4ccc(C(F)F)nn34)ncn2)C(C)C(CNS(C)(=O)=O)=C1F` (centres unmarked) [II-491, N-((1-(6-(6-(Difluoromethyl)imidazo[1,2-b]pyridazin-3-yl)pyrimidin-4-yl)-4-fluoro-2,5-dimethyl-1,2,5,6-tetrahydropyridin-3-yl)methyl)methanesulfonamide], for which, in assay [1] (compounds of Formula II), the IC50 is under 0.5 µM. The Ki at GCN2 kinase (setting [2]) was under 0.01 µM.

As to `NC(=O)c1cn2c(-c3nccc(N4CCOC(c5cn[nH]c5)C4)n3)cnc2cn1` (centres unmarked) [IV-38, 3-(4-(2-(1H-Pyrazol-4-yl)morpholino)pyrimidin-2-yl)imidazo[1,2-a]pyrazine-6-carboxamide], the concentration for half-maximal inhibition (IC50) in assay [1] (compounds of Formula IV) is over 5 µM. This compound also gave a Ki at GCN2 kinase (setting [3]) of 0.01 to 0.1 µM.

With `FC(F)(F)c1cn2c(-c3nccc(N4CCC(C5CCOC5)C4)n3)cnc2cn1` (centres unmarked) [IV-609, 3-(4-(3-(Tetrahydrofuran-3-yl)pyrrolidin-1-yl)pyrimidin-2-yl)-6-(trifluoromethyl)imidazo[1,2-a]pyrazine], the IC50 in assay [1] (compounds of Formula IV) is over 5 µM. This compound returned a Ki on GCN2 kinase (setting [3]) of 0.1 to 1 µM.

As for `O=C1OCC2CN(c3cc(-c4cnc5ccc(C(F)F)nn45)ccn3)CCN12` (centres unmarked) [II-88, 7-(4-(6-(Difluoromethyl)imidazo[1,2-b]pyridazin-3-yl)pyridin-2-yl)tetrahydro-1H-oxazolo[3,4-a]pyrazin-3(5H)-one], in assay [1] (compounds of Formula II), the IC50 was 0.5 to 5 µM. This compound gave a Ki at GCN2 kinase (setting [2]) of 0.01 to 1 µM.

Take `CC1CC(N=S(C)(C)=O)CN(c2cc(-c3cnc4ccc(C(F)F)nn34)ccn2)C1` (centres unmarked) [II-716, ((1-(4-(6-(Difluoromethyl)imidazo[1,2-b]pyridazin-3-yl)pyridin-2-yl)-5-methylpiperidin-3-yl)imino)dimethyl-λ^6-sulfanone]: the IC50 in assay [1] (compounds of Formula II) is under 0.5 µM. Also, the Ki on GCN2 kinase (setting [2]) was under 0.01 µM.

`O=C1CCC2CN(c3cc(-c4cnc5ccc(C(F)F)nn45)ccn3)CCN12` (centres unmarked) [II-167, 2-(4-(6-(Difluoromethyl)imidazo[1,2-b]pyridazin-3-yl)pyridin-2-yl)hexahydropyrrolo[1,2-a]pyrazin-6(2H)-one] registered an IC50 in assay [1] (compounds of Formula II) of over 5 µM. The compound also came in with a Ki on GCN2 kinase (setting [2]) of 0.01 to 1 µM.

As for `Cc1cn2c(-c3nccc(N4CCOC(c5cn[nH]c5)C4)n3)cnc2cn1` (centres unmarked) [IV-20, 4-(2-(6-Methylimidazo[1,2-a]pyrazin-3-yl)pyrimidin-4-yl)-2-(1H-pyrazol-4-yl)morpholine], the IC50 in assay [1] (compounds of Formula IV) lay within 0.5 to 5 µM. At GCN2 kinase (setting [3]), this compound came in with a Ki of 0.01 to 0.1 µM.

Take `CC1CN(c2ccnc(-c3cnc4cnc(C(F)(F)F)cn34)n2)C(C)C(c2cn[nH]c2)O1` (centres unmarked) [IV-416, 3,6-Dimethyl-2-(1H-pyrazol-4-yl)-4-(2-(6-(trifluoromethyl)imidazo[1,2-a]pyrazin-3-yl)pyrimidin-4-yl)morpholine]: the IC50 in assay [1] (compounds of Formula IV) lay within 0.5 to 5 µM. In addition, the Ki at GCN2 kinase (setting [3]) is under 0.01 µM.

Take `CC(C)c1nc(C2CCCN(c3ccnc(-c4cnc5cnc(Br)cn45)n3)C2)c[nH]1` (centres unmarked) [IV-384, 6-Bromo-3-(4-(3-(2-isopropyl-1H-imidazol-4-yl)piperidin-1-yl)pyrimidin-2-yl)imidazo[1,2-a]pyrazine]: the half-inhibitory concentration (IC50) in assay [1] (compounds of Formula IV) is 0.5 to 5 µM. At GCN2 kinase (setting [3]), the Ki fell in the range of 0.01 to 0.1 µM.

In assay [1] (compounds of Formula II), `CS(=O)(=O)NCCC1CCN(c2cc(-c3cnc4ccc(C(F)F)nn34)ncn2)C1` (centres unmarked) [II-17, N-(2-(1-(6-(6-(Difluoromethyl)imidazo[1,2-b]pyridazin-3-yl)pyrimidin-4-yl)pyrrolidin-3-yl)ethyl)methanesulfonamide] came in with a half-maximal inhibitory concentration (IC50) of 0.5 to 5 µM. The compound further had a Ki on GCN2 kinase (setting [2]) of 0.01 to 1 µM.

Compound `CNS(=O)(=O)NCC1CN(c2cc(-c3cnc4ccc(C(F)F)nn34)ncn2)CCO1` (centres unmarked) [II-386, 1-((4-(6-(6-(Difluoromethyl)imidazo[1,2-b]pyridazin-3-yl)pyrimidin-4-yl)morpholin-2-yl)methyl)-3-methylsulfuric diamide] gave a 50% inhibitory concentration (IC50) in assay [1] (compounds of Formula II) of under 0.5 µM. Besides, on GCN2 kinase (setting [2]), the Ki is under 0.01 µM.

`CS(=O)(=O)NCC1CC(O)CN(c2cc(-c3cnc4ccc(C(F)F)nn34)ccn2)C1` (centres unmarked) [II-40, N-((1-(4-(6-(Difluoromethyl)imidazo[1,2-b]pyridazin-3-yl)pyridin-2-yl)-5-hydroxypiperidin-3-yl)methyl)methanesulfonamide] gave an IC50 in assay [1] (compounds of Formula II) of under 0.5 µM. The same compound returned a Ki on GCN2 kinase (setting [2]) of under 0.01 µM.

On to `CC1CN(c2cc(-c3cnc4ccc(C(F)F)nn34)ncn2)CC(CNS(C)(=O)=O)C1(F)F` (centres unmarked) [II-45, N-((1-(6-(6-(Difluoromethyl)imidazo[1,2-b]pyridazin-3-yl)pyrimidin-4-yl)-4,4-difluoro-5-methylpiperidin-3-yl)methyl)methanesulfonamide], for which the IC50 in assay [1] (compounds of Formula II) is under 0.5 µM. The compound further registered a Ki at GCN2 kinase (setting [2]) of under 0.01 µM.

In turn, `CC1CC(CS(C)(=N)=O)C(C)N(c2ccnc(-c3cnc4cnc(C(F)F)cn34)n2)C1` (single isomer, unassigned) [IV-366, ((1-(2-(6-(Difluoromethyl)imidazo[1,2-a]pyrazin-3-yl)pyrimidin-4-yl)-2,5-dimethylpiperidin-3-yl)methyl)(imino)(methyl)-λ^6-sulfanone] had an IC50 in assay [1] (compounds of Formula IV) of over 5 µM. The Ki on GCN2 kinase (setting [3]) lay in the range of 0.1 to 1 µM.

`FC(F)(F)c1ccc2ncc(-c3cc(N4CCCC(c5c[nH]cn5)C4)ncn3)n2n1` (centres unmarked) [II-715] returned an IC50 in assay [1] (compounds of Formula II) of 0.5 to 5 µM. This compound showed a Ki on GCN2 kinase (setting [2]) of 0.01 to 1 µM.
